Test results reported in ChEMBL document CHEMBL1201862, “PubChem BioAssay data set” (2004).
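Test compounds were applied to cells in 96-well plates for 48 hours at 5 doses. GI50 = concentration required for 50% inhibition of growth.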 Activity calls are given as the source filed them. Cut-off read from the data, not from the text of the source: active = GI50 up to about 1.1 µM and inactive = higher.

Key:
Assay in all cases: inhibition of tumour cell growth, NCI panel, 48 h
[1] = tested on: HCT-116
[2] = tested on: OVCAR-8
[3] = tested on: COLO 205
[4] = tested on: OVCAR-3
[5] = tested on: RXF 393
[6] = tested on: ACHN
[7] = tested on: MDA-N
[8] = tested on: CCRF-CEM
[9] = tested on: HOP-92
[10] = tested on: 786-0
[11] = tested on: BT-549
[12] = tested on: SK-MEL-28
[13] = tested on: SNB-75
[14] = tested on: PC-3
[15] = tested on: OVCAR-4
[16] = tested on: T47D
[17] = tested on: MDA-MB-231
[18] = tested on: SK-MEL-5
[19] = tested on: MOLT-4
[20] = tested on: HT-29
[21] = tested on: SN12C
[22] = tested on: SW-620
[23] = tested on: DU-145
[24] = tested on: K562
[25] = tested on: KM12
[26] = tested on: U-251
[27] = tested on: TK-10
[28] = tested on: CAKI-1
[29] = tested on: SNB-19
[30] = tested on: HL-60
[31] = tested on: RPMI-8226
[32] = tested on: SF-295
[33] = tested on: SK-OV-3
[34] = tested on: M14
[35] = tested on: UO-31
[36] = tested on: NCI-H23
[37] = tested on: NCI-H522
[38] = tested on: HCT-15
[39] = tested on: MDA-MB-435
[40] = tested on: UACC-62
[41] = tested on: IGROV-1
[42] = tested on: Malme-3M
[43] = tested on: SF-268
[44] = tested on: OVCAR-5
[45] = tested on: EKVX
[46] = tested on: HOP-62
[47] = tested on: Hs-578T
[48] = tested on: UACC-257
[49] = tested on: NCI/ADR-RES
[50] = tested on: NCI-H226
[51] = tested on: SK-MEL-2
[52] = tested on: A549
[53] = tested on: LOX IMVI
[54] = tested on: SF-539
[55] = tested on: NCI-H460
[56] = tested on: HCC 2998
[57] = tested on: SR
[58] = tested on: A498
[59] = tested on: MCF7

## O=S(=O)(O)c1cccc2ccc(O)c(/N=N\c3ccc(S(=O)(=O)c4ccc(/N=N/c5c(O)ccc6cccc(S(=O)(=O)O)c56)cc4)cc3)c12
[1]
  GI50: > 100 µM (inactive)
[2]
  GI50: > 100 µM (inactive)
[3]
  GI50: > 100 µM (inactive)
[4]
  GI50: > 100 µM (inactive)
[5]
  GI50: > 100 µM (inactive)
[6]
  GI50: > 100 µM (inactive)
[7]
  GI50: > 100 µM (inactive)
[8]
  GI50: > 100 µM (inactive)
[9]
  GI50: > 100 µM (inactive)
[10]
  GI50: > 100 µM (inactive)
[11]
  GI50: > 100 µM (inactive)
[12]
  GI50: > 100 µM (inactive)
[13]
  GI50: 65.5 µM (inactive)
[14]
  GI50: > 100 µM (inactive)
[15]
  GI50: > 100 µM (inactive)
[16]
  GI50: > 100 µM (inactive)
[17]
  GI50: > 100 µM (inactive)
[18]
  GI50: > 100 µM (inactive)
[19]
  GI50: > 100 µM (inactive)
[20]
  GI50: > 100 µM (inactive)
[21]
  GI50: > 100 µM (inactive)
[22]
  GI50: > 100 µM (inactive)
[23]
  GI50: > 100 µM (inactive)
[24]
  GI50: 50.4 µM (inactive)
[25]
  GI50: 67.3 µM (inactive)
[26]
  GI50: > 100 µM (inactive)
[27]
  GI50: > 100 µM (inactive)
[28]
  GI50: > 100 µM (inactive)
[29]
  GI50: > 100 µM (inactive)
[30]
  GI50: < 0.01 µM (active)
[31]
  GI50: > 100 µM (inactive)
[32]
  GI50: > 100 µM (inactive)
[33]
  GI50: > 100 µM (inactive)
[34]
  GI50: > 100 µM (inactive)
[35]
  GI50: 63.4 µM (inactive)
[36]
  GI50: > 100 µM (inactive)
[37]
  GI50: > 100 µM (inactive)
[38]
  GI50: > 100 µM
[39]
  GI50: > 100 µM (inactive)
[40]
  GI50: > 100 µM (inactive)
[41]
  GI50: 81.5 µM (inactive)
[42]
  GI50: > 100 µM (inactive)
[43]
  GI50: > 100 µM (inactive)
[44]
  GI50: > 100 µM (inactive)
[45]
  GI50: > 100 µM (inactive)
[46]
  GI50: > 100 µM (inactive)
[47]
  GI50: > 100 µM (inactive)
[48]
  GI50: > 100 µM (inactive)
[49]
  GI50: > 100 µM (inactive)
[50]
  GI50: > 100 µM (inactive)
[51]
  GI50: > 100 µM (inactive)
[52]
  GI50: > 100 µM (inactive)

## Oc1[nH]c(Nc2ccc(Cl)cc2)nc2ncnc1-2
[1]
  GI50: 84.3 µM (inactive)
[2]
  GI50: > 100 µM (inactive)
[3]
  GI50: > 100 µM (inactive)
[4]
  GI50: > 100 µM (inactive)
[6]
  GI50: 63.7 µM (inactive)
[53]
  GI50: > 100 µM (inactive)
[9]
  GI50: 81.3 µM (inactive)
[10]
  GI50: > 100 µM (inactive)
[11]
  GI50: > 100 µM (inactive)
[12]
  GI50: > 100 µM (inactive)
[13]
  GI50: 43.4 µM (inactive)
[14]
  GI50: > 100 µM (inactive)
[15]
  GI50: 64.7 µM (inactive)
[54]
  GI50: > 100 µM (inactive)
[16]
  GI50: 61.7 µM (inactive)
[17]
  GI50: 88.3 µM (inactive)
[18]
  GI50: > 100 µM (inactive)
[20]
  GI50: 47.4 µM (inactive)
[55]
  GI50: > 100 µM (inactive)
[56]
  GI50: 98.6 µM (inactive)
[21]
  GI50: > 100 µM (inactive)
[22]
  GI50: > 100 µM (inactive)
[23]
  GI50: 70.1 µM (inactive)
[25]
  GI50: > 100 µM (inactive)
[26]
  GI50: > 100 µM (inactive)
[27]
  GI50: > 100 µM (inactive)
[28]
  GI50: > 100 µM (inactive)
[57]
  GI50: 44.9 µM (inactive)
[29]
  GI50: 33.1 µM (inactive)
[58]
  GI50: > 100 µM (inactive)
[30]
  GI50: > 100 µM (inactive)
[31]
  GI50: > 100 µM (inactive)
[32]
  GI50: > 100 µM (inactive)
[33]
  GI50: > 100 µM (inactive)
[34]
  GI50: 89.1 µM (inactive)
[36]
  GI50: > 100 µM (inactive)
[37]
  GI50: 90.8 µM (inactive)
[38]
  GI50: > 100 µM
[39]
  GI50: > 100 µM (inactive)
[40]
  GI50: > 100 µM (inactive)
[41]
  GI50: > 100 µM (inactive)
[42]
  GI50: > 100 µM (inactive)
[43]
  GI50: 55 µM (inactive)
[44]
  GI50: > 100 µM (inactive)
[45]
  GI50: > 100 µM (inactive)
[59]
  GI50: > 100 µM (inactive)
[46]
  GI50: > 100 µM (inactive)
[47]
  GI50: 23.3 µM (inactive)
[48]
  GI50: > 100 µM (inactive)
[49]
  GI50: > 100 µM (inactive)
[50]
  GI50: > 100 µM (inactive)
[51]
  GI50: > 100 µM (inactive)
[52]
  GI50: > 100 µM (inactive)
